According to patent US8017316B2, “Methods and compositions for the identification of insect repellent compounds” (Duke University, priority 2007, dated 2011):

Tests used:
wild-type Canton S flies = test: Avoidance Evaluation Chamber assay, wild type flies; type: in vivo, Drosophila melanogaster; conditions: for avoidance without the third antennal segment: wild type Canton S flies, third antennal segment removed
Protocol: (§1) Avoidance Evaluation Chambers: 3% agar (Fisher Scientific, Pittsburgh, Pa., United States of America) and 3% sucrose (Fisher Scientific) was dissolved in distilled H2O. 0.2% (1:500, or 20 mM) N,N-diethyl-3-methylbenzamide (DEET) or 0.01% (1:10000, or 1 mM) allyl-isothiocyanate (AITC) was added and mixed into the agar/sucrose solution immediately before 22 milliliters of solution was poured into each 60 diameter×15 mm HBD Falcon Standard Tissue Culture Dish. The agar was allowed for harden for approximately 1 hour. Using a template below each dish, the agar was then split along the midline with a clean razor blade and half of each plate was excised and placed onto a clean absorbent towel. In order to assess preference, the empty half of each plate was then replaced with solidified 3% agar and 3% sucrose without the addition of DEET or AITC. Care was taken to not contaminate surfaces of toxin and toxin-free agar during this switch.
(§2) Olfactory Desensitization: To prevent most odorant detection, the third antennal segment of each antennae was removed from flies under CO2 anesthesia 24 hours before avoidance trials. Removal of both aristae, but not any part of the antennae, was used as a sham to control for non-specific effects that may have resulted from the surgical procedure.
(§3) Trial Recording: Testing areas (e.g., plates), each containing toxin-containing and toxin-free halves, were placed on a fluorescent-bulb containing light box and arranged so that all fit within the viewfinder of a digital video camera (SONY Handycam; see FIG. 1). Multiple flies to be used on each plate of the trial were sorted under CO2 anesthesia 24 hours before the experiment into glass vials containing fly food. During the experiment, the flies were transferred onto the agar plates by gentle tapping after vials were cooled horizontally on ice. The lids were replaced on the agar plates after fly transfer and animals were allowed a 5-minute acclimation time prior to the start of each trial. The video camera began recording after this acclimation time and ran for 60 minutes. External noise and odors were avoided throughout the trial.
Data Analysis—Avoidance Behavior: Video was downloaded from the digital video camera to a computer using Image Video Mixer (Sony Electronics Inc.) and saved as an MPEG2 file. The movie was then converted to and saved as an image stack at the rate of 1-3 images/second through Image Video Machine (DanDans Digital Media, Boston, Mass., United States of America). Image stacks for each trial were then analyzed at 10 or 15-minute intervals. Each interval was imported and converted to grayscale into ImageJ (Rasband, ImageJ, U.S. National Institutes of Health, Bethesda, Md., United States of America) as a stack and thresholded (Image→Threshold) so that only flies were visible. Care was taken to make sure only flies were visible in each slice since fluorescence in the light box may be of different brightness in each image. The Z-stack Standard Deviation function of ImageJ (Image→Stack→Z-stack→Standard Deviation) was used to visualize the position of all flies throughout each time interval. […] To quantify this amount of time each space was occupied, the “mean gray value” for each side was calculated using the Analyze Measurements menu of ImageJ. […]
Alternatively, the threshold intensity of a single frame in NIH ImageJ was determined automatically; this function highlighted only the flies against an otherwise white background. […]

Or83b mutants = test: Avoidance Evaluation Chamber assay, Or83b mutant flies; type: in vivo, Drosophila melanogaster; conditions: olfaction-deficient Or83b mutants
Protocol: (§4) Drosophila Stocks. All fly stocks were maintained on conventional cornmeal-agar-molasses medium under a 12 hour light/12 hour dark cycle at 22° C. Fly strains used were the wild-type Canton-S, the painless mutant pain1 (EP(2)2451), the dTRPA1 mutant (dTRPA1^23-5939/Df(3L)ED4415), the painless− dTRPA1 double mutant pain1; dTRPA1^23-5939, the Or83b mutant W;ΔOr83b (provided by Dr. Hubert Amrein, Duke University, Durham, N.C., United States of America), and the Or83b-painless double mutant pain1; W;ΔOr83b.
(§5) Avoidance Evaluation Chambers: 3% agar (Fisher Scientific, Pittsburgh, Pa., United States of America) and 3% sucrose (Fisher Scientific) was dissolved in distilled H2O. […]
(§6) Data Analysis—Avoidance Behavior: Video was downloaded from the digital video camera to a computer using Image Video Mixer (Sony Electronics Inc.) and saved as an MPEG2 file. […] Image stacks for each trial were then analyzed at 10 or 15-minute intervals. […] Care was taken to make sure only flies were visible in each slice since fluorescence in the light box may be of different brightness in each image. […] To quantify this amount of time each space was occupied, the “mean gray value” for each side was calculated using the Analyze Measurements menu of ImageJ. […]

painless mutant flies = test: Avoidance Evaluation Chamber assay, painless mutant flies; type: in vivo, Drosophila melanogaster
Protocol: as §4, §1, §2, §3
Data Analysis—Avoidance Behavior: Video was downloaded from the digital video camera to a computer using Image Video Mixer (Sony Electronics Inc.) and saved as an MPEG2 file. The movie was then converted to and saved as an image stack at the rate of 1-3 images/second through Image Video Machine (DanDans Digital Media, Boston, Mass., United States of America). Image stacks for each trial were then analyzed at 10 or 15-minute intervals. Each interval was imported and converted to grayscale into ImageJ (Rasband, ImageJ, U.S. National Institutes of Health, Bethesda, Md., United States of America) as a stack and thresholded (Image→Threshold) so that only flies were visible. Care was taken to make sure only flies were visible in each slice since fluorescence in the light box may be of different brightness in each image. The Z-stack Standard Deviation function of ImageJ (Image→Stack→Z-stack→Standard Deviation) was used to visualize the position of all flies throughout each time interval. This inverts and stacks pixels (flies) from each stack image so that the most occupied areas are standardized to be the brightest, and the least occupied areas remain dark. To quantify this amount of time each space was occupied, the “mean gray value” for each side was calculated using the Analyze Measurements menu of ImageJ. […]

dTRPA1 mutant flies = test: Avoidance Evaluation Chamber assay, dTRPA1 mutant flies; type: in vivo, Drosophila melanogaster
Protocol: as §4, §5, §6

Drosophila flies = test: Evaluation of activity level (speed of flies); type: in vivo, Drosophila melanogaster
Protocol: Evaluation of Activity Level—Speed of Flies: Video of trials were downloaded and converted to image stacks and thresholded as described above. The ImageJ plug-in “Multitracker” was used to analyze the paths taken by each fly. The total distance traveled by all flies on each plate was calculated using the Multitracker plug-in, and this distance was divided by the time interval (in minutes) to gauge the average speed of flies on each plate in path lengths/minute.

Drosophila painless = target: T1, Drosophila painless (Drosophila melanogaster, UniProt Q9W0Y6); test: Calcium imaging of S2R+ cells transfected with painless; type: cell-based; conditions: 0.5% DEET, six regions of interest
T1 construct: expressed in transfected cells; host or cells: Drosophila S2R+ cells
T1 sequence (Q9W0Y6 1-913): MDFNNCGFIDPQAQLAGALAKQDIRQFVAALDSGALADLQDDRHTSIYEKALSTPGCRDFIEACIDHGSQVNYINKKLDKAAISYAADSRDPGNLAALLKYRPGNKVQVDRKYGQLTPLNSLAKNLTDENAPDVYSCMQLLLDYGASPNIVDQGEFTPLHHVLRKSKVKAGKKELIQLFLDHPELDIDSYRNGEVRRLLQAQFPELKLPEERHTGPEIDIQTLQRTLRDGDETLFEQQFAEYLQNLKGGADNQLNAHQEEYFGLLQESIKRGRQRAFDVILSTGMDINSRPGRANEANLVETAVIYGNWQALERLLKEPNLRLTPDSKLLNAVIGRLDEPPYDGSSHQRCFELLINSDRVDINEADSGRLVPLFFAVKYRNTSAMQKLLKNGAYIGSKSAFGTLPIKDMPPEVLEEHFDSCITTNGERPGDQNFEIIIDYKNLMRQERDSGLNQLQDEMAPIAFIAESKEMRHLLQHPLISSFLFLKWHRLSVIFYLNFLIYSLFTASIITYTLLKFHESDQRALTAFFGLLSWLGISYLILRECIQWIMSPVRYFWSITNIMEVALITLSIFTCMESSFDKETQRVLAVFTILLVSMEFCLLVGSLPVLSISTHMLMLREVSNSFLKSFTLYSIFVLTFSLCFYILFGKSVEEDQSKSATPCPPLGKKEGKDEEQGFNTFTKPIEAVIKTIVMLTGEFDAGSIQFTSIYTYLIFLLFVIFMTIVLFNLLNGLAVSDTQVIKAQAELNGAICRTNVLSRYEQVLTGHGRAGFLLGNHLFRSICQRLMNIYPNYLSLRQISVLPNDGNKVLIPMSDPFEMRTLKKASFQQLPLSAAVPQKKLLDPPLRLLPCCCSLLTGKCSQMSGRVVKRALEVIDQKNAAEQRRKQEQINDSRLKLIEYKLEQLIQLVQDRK
Protocol: Calcium Phosphate Transfection of Drosophila S2R+ Cells: Drosophila S2R+ cells were maintained at room temperature, in ambient atmosphere, in Schneider's Drosophila medium modified with L-glutamine plus 10% heat-inactivated fetal bovine serum. On the day before DNA transfection, cells were plated at a density of 1.2×10^5 cells per cm^2 growth area. DNA to be transfected was added to 250 mM CaCl2 (a volume equal to 1/20th of the volume of the medium in the dish of cells to be transfected) then this mixture was added dropwise to the same volume of 280 mM NaCl/1.5 mM/Na2HPO4/50 mM HEPES, pH 7.08 (2×HEPES buffered saline) while bubbling air gently through the liquid to mix. Precipitate was allowed to form at room temperature for 40 minutes. Immediately before introducing the precipitate, all growth medium was removed form the cells and fresh growth medium was added. Precipitate was added dropwise to the cells, and the dish was gently swirled. 18-24 hour later all liquid on the dish was withdrawn and was replaced with fresh growth medium. Expression was examined on the third day.
For the DEET experiments, 2 ml of culture medium containing 5.75×10^5 cells/ml was placed onto #1.5 25 mm diameter round glass cover slips placed in 6-well multiwell dishes. […]

[1] = test system: non-transfected S2R+ cells; test: Calcium imaging of non-transfected S2R+ cells; type: cell-based, Drosophila; conditions: 0.5% DEET, seven regions of interest
Protocol: Calcium Imaging for S2R+ cells: the following protocol was followed:
100 μl of the following Fluo4+Fura-Red solution was added per well:
Added 200 μl of fly saline.
The ligand solution was added (with or without Ca++ fly saline).
Control cells were S2R+ cells mock-transfected (no DNA was introduced in the co-precipitation buffers).
After removal of the cell medium from the transfected cells of EXAMPLE 8, 100 μl of FLUO-4+ FURA-Red solution was added to well. This solution included 0.5 μl FLUO-4 stock, 0.5 μl FURA-Red stock, 0.5 μl Pluronic stock and 100 μl Stop solution. The cells were incubate in this solution at room temperature for 45 minutes. The saline was removed and 200 μl of fly saline was added. In Ca++ free conditions, the cells were washed with Ca++ free fly saline supplemented with 5 mM EGTA three times, and then 200 μl of Ca++ free, 5 mM EGTA fly saline was added. The ligand solution was then added with or without Ca++ fly saline.
The loaded cells were imaged by confocal microscopy using 488 nm excitation and Long Pass 650 nm and Band Pass 500-525 nm filters.

## C=CCN=C=S [AITC, allyl-isothiocyanate]
wild-type Canton S flies
  avoidance without the third antennal segment: able to avoid
Or83b mutants
  avoidance: did not show the same avoidance of AITC
Painless mutant flies; painless-/- males, 1:10,000 dilution
  preference in AITC avoidance test, males: slight preference for the non-AITC side
Painless mutant flies; painless-/- mutants, 1:10,000 dilution, compared to wild type Canton S
  AITC detection / avoidance: deficient in AITC detection
dTRPA1 mutant flies; 1:10,000 AITC
  avoidance of AITC over time: avoided the toxin for the first 30 minutes, but afterwards showed no preference for either side of the plate

## CCN(CC)C(=O)c1cccc(C)c1 [DEET, N,N-diethyl-meta-toluamide]
wild-type Canton S flies; Canton S flies without antennae
  time to begin avoiding DEET: almost immediately
wild-type Canton S flies
  avoidance without the third antennal segment: able to avoid
wild-type Canton S flies; wild type Canton-S flies
  avoidance of DEET in first fifteen minutes after exposure: clearly avoided DEET
wild-type Canton S flies; wild-type Canton S flies, with and without the presence of sugar
  lowest concentration in agar consistently avoided: 0.2%
Drosophila flies; Canton S flies without the third antennal segment
  activity level (path lengths/min) in the presence of DEET: significantly less active
Drosophila flies; Or83b flies compared to Canton S, TrpA1 and painless mutant counterparts
  activity level in the presence of DEET: much less active
Drosophila flies; wild type Canton S flies with intact third-antennal segments
  activity level (path lengths/min) in the presence of DEET: increased their activity level
Drosophila painless
  calcium response (FLUO-4 and FURA-RED AM channels): strong calcium increases
Or83b mutants
  avoidance: able to avoid DEET
Painless mutant flies; P-pain-rescue, pain1 transgenic flies (genomic painless rescue construct), females and males
  avoidance of DEET in first 15 minutes: some avoidance of DEET
Painless mutant flies; pain1/pain2 females and males
  avoidance of DEET in first fifteen minutes after exposure: failed to avoid DEET
Painless mutant flies; pain1 females and males
  avoidance of DEET in first fifteen minutes after exposure: failed to avoid DEET
Painless mutant flies; painless females vs painless males
  time to avoid DEET, females relative to males: twice as long
Painless mutant flies; painless-/- females
  avoidance of DEET, females: barely avoiding at the last 65 min time point
Painless mutant flies; painless-/- males
  time to begin avoiding DEET: about 30 minutes
Painless mutant flies; painless-/- males and females with surgically removed third antennal segments
  avoidance of DEET without third antennal segments: no avoidance of DEET
Painless mutant flies; painless-Gal4 females and males
  avoidance of DEET in first fifteen minutes of the trial: failed to avoid DEET
[1]
  calcium response (FLUO-4 and FURA-RED AM channels): strong calcium increases
dTRPA1 mutant flies; 0.2% concentration
  exposure time until consistent avoidance of DEET: less than 15 minutes
